This passage reports solubility and Solubility in acetonitrile results from US8044035B2, “Pharmaceutical compositions of pyrimidine-2,4,6-triones” (priority 2004, dated 2011).

Read-outs that look alike come from different tables or passages of the source.

Data set [1] in a line: Solubility of various trioxopyrimidines in the presence of HPβCD. The conditions noted are these: HPβCD solution, 37 °C, aqueous with cosolvent or surfactant or cyclodextrin, thermodynamic from solid, read-out: Concentration (solubility). Type of data set: physicochemical. As to the method:
1.1 Weigh 20 mg of compound I. Add 2 ml of solution of HPβCD 200 mM. Stir for 24 h at 37° C. Filter in Millipore filter Millex HV 0.45 μm. The solution obtained after filtration contains the complex compound I-CD in solution.
1.2. Weigh 2.5 mg of compound I. Add 2 ml of solution of HPβCD 200 mM. Stir at 37° C. for 24 h or until compound I is completely dissolved. The solution obtained in this way contains the complex compound I-CD.
At the time of a complex formation, compound I, practically insoluble in water (<0.6 μg/ml, MW: 485), solubilizes dramatically. The increase in the solubility of compound I is thus proof of a complex formation between Compound I and the CD. Complex formation and achievement of the equilibrium is found at 20% after 1 day, 40% after 4 days, and 100% after 7 days. The solubility diagrams (FIG. 1) are carried out by adding an excess of compound I to the CD solutions of increasing concentration. After 7 days of stirring in thermostatically controlled baths at 37° C., these solutions are filtered and the solubilized compound I quantity is dosed by HPLC. The βCD and the γCD as well as their synthetic derivatives have allowed complexes with compound I to be formed. The β-CD and the HPβCD come from ROQUETTE (France), the RMβCD and the γCD have been supplied by Wacker (Germany).
The flasks containing compound I and the cyclodextrins are placed being stirred in thermostatically controlled baths at 37° C. for 7 days, so that the complexation balance is reached. After this time, the suspensions are filtered with the help of a milli-pore filter 0.22 μm in PVDF and the filtrate is dissolved in DMSO in the mobile phase to obtain concentration samples situating themselves on the calibrating line. They are then dosed thanks to the validated HPLC method, described below.
Solubility is investigated according to Examples 1 and 2.

A short description of data set [2]: Differential solubility in acetonitrile of free and complexed compound I. Type of data set: physicochemical. The text has this: Compound I has different solubility when it is in the complex form or not. […] In these conditions the included drug remains trapped and becomes insoluble in the solvent. This technique of differential solubility between compound I in the free or in the complexed form can be applied to evaluate the percentage of complexation.

For `O=C1NC(=O)C(c2ccc(Oc3ccccc3)cc2)(N2CCN(c3ncccn3)CC2)C(=O)N1` [Compound II, 5-(4-Phenoxy-phenyl)-5-(4-pyrimidin-2-yl-piperazin-1-yl)-pyrimidine-2,4,6-trione], the solubility was 1300 µg/mL in data set [1] (HPβCD 10 mM); 3400 µg/mL in data set [1] (HPβCD 25 mM); 3800 µg/mL in data set [1] (HPβCD 50 mM); 5900 µg/mL in data set [1] (HPβCD 100 mM); 9300 µg/mL in data set [1] (HPβCD 200 mM).

For the compound `O=C1NC(=O)C(c2ccc(Oc3ccc(Cl)cc3)cc2)(N2CCN(c3ncccn3)CC2)C(=O)N1` [Compound III, 5-[4-(4-Chloro-phenoxy)-phenyl]-5-(4-pyrimidin-2-yl-piperazin-1-yl)-pyrimidine-2,4,6-trione], the solubility in data set [1] (HPβCD 10 mM) stood at 800 µg/mL; in data set [1] (HPβCD 25 mM), 2400 µg/mL; in data set [1] (HPβCD 50 mM), 3100 µg/mL; in data set [1] (HPβCD 100 mM) it was 6100 µg/mL; in data set [1] (HPβCD 200 mM), 9500 µg/mL.

With `O=C1NC(=O)C(c2ccc(Oc3ccc(Cl)c(Cl)c3)cc2)(N2CCN(c3ncccn3)CC2)C(=O)N1` [Compound IV, 5-[4-(3,4-Dichloro-phenoxy)-phenyl]-5-(4-pyrimidin-2-yl-piperazin-1-yl)-pyrimidine-2,4,6-trione], the solubility is 100 µg/mL in data set [1] (HPβCD 10 mM); 200 µg/mL in data set [1] (HPβCD 25 mM); 900 µg/mL in data set [1] (HPβCD 50 mM); 2700 µg/mL in data set [1] (HPβCD 100 mM); 7900 µg/mL in data set [1] (HPβCD 200 mM).

Regarding `O=C1NC(=O)C(c2ccc(Oc3ccc(Br)cc3)cc2)(N2CCN(c3ncccn3)CC2)C(=O)N1` [Compound V, 5-[4-(4-Bromo-phenoxy)-phenyl]-5-(4-pyrimidin-2-yl-piperazin-1-yl)-pyrimidine-2,4,6-trione], the solubility in data set [1] (HPβCD 10 mM) was 800 µg/mL; in data set [1] (HPβCD 25 mM) it was 2400 µg/mL; in data set [1] (HPβCD 50 mM), 5400 µg/mL; in data set [1] (HPβCD 100 mM) it was 6600 µg/mL; in data set [1] (HPβCD 200 mM) it was 9900 µg/mL.

As to Hydroxypropyl β-cyclodextrin [HP-β-CD], the Solubility in acetonitrile entry in data set [2] is “insoluble”.
